Experimental data as given in patent US20140315889A1, “HYDROXAMATE DERIVATIVES FOR HDAC INHIBITOR, AND THE PHARMACEUTICAL COMPOSITION COMPRISING THEREOF” (CHONG KUN DANG PHARMACEUTICAL CORP., priority 2011, published 2014).
Like-named read-outs stand apart in the source and are kept apart here.

Columns and labels:
Type in all cases: biochemical
[1] = target: T1, HDAC8 (Homo sapiens, UniProt Q9BY41); test: HDAC enzyme activity test, HDAC8; conditions: Table 11, eleven HDAC isozymes; read-out: Inhibition ability (IC50) against HDAC8
T1 sequence (Q9BY41 1-377): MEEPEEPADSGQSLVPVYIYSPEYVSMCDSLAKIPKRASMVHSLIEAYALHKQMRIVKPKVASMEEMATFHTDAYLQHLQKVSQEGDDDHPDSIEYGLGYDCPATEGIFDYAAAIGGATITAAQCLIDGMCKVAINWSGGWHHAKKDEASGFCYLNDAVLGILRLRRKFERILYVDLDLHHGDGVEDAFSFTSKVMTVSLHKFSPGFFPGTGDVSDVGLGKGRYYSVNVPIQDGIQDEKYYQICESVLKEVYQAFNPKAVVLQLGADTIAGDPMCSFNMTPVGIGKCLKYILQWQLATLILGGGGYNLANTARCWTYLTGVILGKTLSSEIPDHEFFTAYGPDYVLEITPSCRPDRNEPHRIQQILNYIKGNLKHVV
Method: (§1) Then, 0.3 μg of enzyme and 10 μM of substrate per well were added, reacted at 30° C. for 60 minutes. Thereto, Fluor de Lys® Developer II (BML-KI176) was added and reacted for 30 minutes. […] From the data, the respective IC50 were calculated by GraphPad Prism 4.0 program.

[2] = target: T2, human recombinant HDAC6 (Homo sapiens, UniProt Q9UBN7); test: HDAC enzyme activity test, HDAC6; conditions: for Selectivity for HDAC6, HD1/HD6: ratio HDAC1 IC50 / HDAC6 IC50
T2 construct: purchased Calibiochem Co. (so in the source) 382180
T2 sequence (Q9UBN7 1-1215): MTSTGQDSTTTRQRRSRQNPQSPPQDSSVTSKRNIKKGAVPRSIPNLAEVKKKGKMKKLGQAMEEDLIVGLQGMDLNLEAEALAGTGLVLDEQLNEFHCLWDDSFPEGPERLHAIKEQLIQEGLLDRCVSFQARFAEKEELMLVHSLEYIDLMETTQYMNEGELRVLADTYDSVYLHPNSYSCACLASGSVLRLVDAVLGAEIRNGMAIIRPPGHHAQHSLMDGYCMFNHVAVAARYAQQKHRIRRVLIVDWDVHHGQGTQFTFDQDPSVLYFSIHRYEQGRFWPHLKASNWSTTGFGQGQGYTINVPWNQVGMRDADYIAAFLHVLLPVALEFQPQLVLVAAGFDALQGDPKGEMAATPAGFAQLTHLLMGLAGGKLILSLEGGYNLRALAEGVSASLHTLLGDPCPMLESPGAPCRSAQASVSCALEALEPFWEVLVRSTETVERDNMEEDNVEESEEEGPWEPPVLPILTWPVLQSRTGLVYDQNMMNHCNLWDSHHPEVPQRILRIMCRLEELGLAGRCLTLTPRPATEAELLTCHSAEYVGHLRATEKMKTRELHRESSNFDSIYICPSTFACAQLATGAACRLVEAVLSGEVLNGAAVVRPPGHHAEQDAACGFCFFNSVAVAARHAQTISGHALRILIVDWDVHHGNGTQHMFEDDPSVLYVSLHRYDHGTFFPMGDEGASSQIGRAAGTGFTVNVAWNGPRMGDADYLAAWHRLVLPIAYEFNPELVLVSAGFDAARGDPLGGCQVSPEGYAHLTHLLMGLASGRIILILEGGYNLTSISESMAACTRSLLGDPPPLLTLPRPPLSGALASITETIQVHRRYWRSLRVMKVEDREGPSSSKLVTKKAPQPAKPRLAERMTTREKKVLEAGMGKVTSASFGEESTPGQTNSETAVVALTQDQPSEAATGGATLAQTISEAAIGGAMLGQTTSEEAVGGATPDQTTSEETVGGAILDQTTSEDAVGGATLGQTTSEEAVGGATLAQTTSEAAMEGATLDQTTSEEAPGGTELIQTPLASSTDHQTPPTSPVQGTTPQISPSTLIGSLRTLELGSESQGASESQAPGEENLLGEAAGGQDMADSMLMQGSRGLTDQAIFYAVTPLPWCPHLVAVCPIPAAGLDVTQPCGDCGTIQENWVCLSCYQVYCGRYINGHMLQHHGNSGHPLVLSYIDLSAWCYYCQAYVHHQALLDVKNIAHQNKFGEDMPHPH
Method: as §1

[3] = target: T3, Human recombinant HDAC1 (Homo sapiens, UniProt Q13547); test: HDAC enzyme activity test, HDAC1; conditions: Table 12; read-out: Inhibition ability (IC50) HDAC1
T3 construct: purchased Enzo Life Science Co. (named for the kit; assigned to the enzyme from the BML- catalogue prefix) BML-SE456
Method: as §1

[4] = Table 12, read-out: Inhibition ability (IC50) HDAC6

T3 sequence (Q13547 whole entry): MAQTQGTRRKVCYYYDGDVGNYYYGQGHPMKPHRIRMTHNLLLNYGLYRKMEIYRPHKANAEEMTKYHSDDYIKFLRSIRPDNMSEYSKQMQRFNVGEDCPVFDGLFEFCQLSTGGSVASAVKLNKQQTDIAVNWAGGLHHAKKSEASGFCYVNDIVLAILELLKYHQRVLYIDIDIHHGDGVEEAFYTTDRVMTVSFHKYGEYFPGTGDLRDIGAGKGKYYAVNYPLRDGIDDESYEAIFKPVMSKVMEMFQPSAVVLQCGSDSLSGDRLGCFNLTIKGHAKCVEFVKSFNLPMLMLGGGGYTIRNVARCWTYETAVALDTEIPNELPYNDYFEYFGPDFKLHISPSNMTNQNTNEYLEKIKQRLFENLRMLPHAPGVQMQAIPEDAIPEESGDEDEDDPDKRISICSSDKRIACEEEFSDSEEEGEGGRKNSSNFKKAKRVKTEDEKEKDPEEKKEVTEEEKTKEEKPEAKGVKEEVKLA

| Structure (SMILES) | IC50 [1] [nM] | IC50 ([2]; Table 11, eleven HDAC isozymes, read-out: Inhibition ability (IC50) against HDAC6) [nM] | Selectivity for HDAC6, HD1/HD6 ([2]; Table 12) | IC50 [2, 4] [nM] | IC50 [3] [nM] |
| --- | --- | --- | --- | --- | --- |
| CC1(C)CC(=O)c2c(n(CCCCCC(=O)NO)c3ccc(F)cc23)C1 [Compound 55, 6-(6-fluoro-2,2-dimethyl-4-oxo-1,2,3,4-tetrahydrocarbazol-9-yl)-N-hydroxyhexanamide] | 507 | 228 | 72.5 | 56.4 | 4080 |
| O=C(NO)c1ccc(Cn2c3c(c4cc(F)ccc42)C(=O)C(CN2CCOCC2)CC3)cc1 (centres unmarked) [Compound 141, 4-((6-fluoro-3-(morpholinomethyl)-4-oxo-1,2,3,4-tetrahydrocarbazol-9-yl)methyl)-N-hydroxybenzamide] | – | – | 850.7 | 4.9 | 4140 |
| CC1(C)CC(=O)c2c(n(Cc3ccc(C(=O)NO)cc3)c3ccc(F)cc23)C1 [Compound 57, 4-((6-fluoro-2,2-dimethyl-4-oxo-1,2,3,4-tetrahydrocarbazol-9-yl)methyl)-N-hydroxybenzamide] | – | – | 168.3 | 22.4 | 3770 |
| Cc1c2c(n(Cc3ccc(C(=O)NO)cc3)c1C)CCCC2=O [Compound 220, 4-((2,3-dimethyl-4-oxo-4,5,6,7-tetrahydroindol-1-yl)methyl)-N-hydroxybenzamide] | – | – | 643.1 | 4.39 | 2820 |
| Cc1c2c(n(Cc3ccc(C(=O)NO)cc3)c1C)CCC(CN1CCOCC1)C2=O (centres unmarked) [Compound 268, 4-((2,3-dimethyl-5-(morpholinomethyl)-4-oxo-4,5,6,7-tetrahydroindol-1-yl)methyl)-N-hydroxybenzamide] | – | – | 448.4 | 13.5 | 6050 |
| Cc1ccc(N2CCN(CC3CCc4c(c5ccccc5n4Cc4ccc(C(=O)NO)cc4)C3=O)CC2)cc1C (centres unmarked) [Compound 128, 4-((3-((4-(3,4-dimethylphenyl)piperazin-1-yl)methyl)-4-oxo-1,2,3,4-tetrahydrocarbazol-9-yl)methyl)-N-hydroxybenzamide] | – | – | 198.6 | 41 | 8140 |
| CC1CN(CC2CCc3c(c4ccccc4n3Cc3ccc(C(=O)NO)cc3)C2=O)CC(C)O1 (centres unmarked) [Compound 110, 4-((3-((2,6-dimethylmorpholino)methyl)-4-oxo-1,2,3,4-tetrahydrocarbazol-9-yl)methyl)-N-hydroxybenzamide] | – | – | 80 | 11.2 | 896 |
| COCCN1CCN(CC2CCc3c(c4cc(F)ccc4n3Cc3ccc(C(=O)NO)cc3)C2=O)CC1 (centres unmarked) [Compound 284, 4-((6-fluoro-3-((4-(2-methoxyethyl)piperazin-1-yl)methyl)-4-oxo-1,2,3,4-tetrahydrocarbazol-9-yl)methyl)-N-hydroxybenzamide] | – | – | 1435.7 | 7.47 | 10700 |
| CC(C)(O)CN1CCN(CC2CCc3c(c4cc(F)ccc4n3Cc3ccc(C(=O)NO)cc3)C2=O)CC1 (centres unmarked) [Compound 191, 4-((6-fluoro-3-((4-(2-hydroxy-2-methylpropyl)piperazin-1-yl)methyl)-4-oxo-1,2,3,4-tetrahydrocarbazol-9-yl)methyl)-N-hydroxybenzamide] | – | – | 1115.6 | 7.4 | 8280 |
| O=C(NO)c1ccc(Cn2c3c(c4cc(F)ccc42)C(=O)C(CN2CC[C@@H](F)C2)CC3)cc1 (stereo partly drawn) [Compound 283, 4-((6-fluoro-3-(((R)-3-fluoropyrrolidin-1-yl)methyl)-4-oxo-1,2,3,4-tetrahydrocarbazol-9-yl)methyl)-N-hydroxybenzamide] | – | – | 1420.6 | 8.29 | 11800 |
| CC(C)N1CCN(CC2CCc3c(c4cc(F)ccc4n3Cc3ccc(C(=O)NO)cc3)C2=O)CC1 (centres unmarked) [Compound 188, 4-((6-fluoro-3-((4-isopropylpiperazin-1-yl)methyl)-4-oxo-1,2,3,4-tetrahydrocarbazol-9-yl)methyl)-N-hydroxybenzamide] | – | – | 49.9 | 45.3 | 2260 |
| CC1(C)CC(=O)c2c(n(Cc3ccc(C(=O)NO)cc3)c3ccc(F)c(F)c23)C1 [Compound 73, 4-((5,6-difluoro-2,2-dimethyl-4-oxo-1,2,3,4-tetrahydrocarbazol-9-yl)methyl)-N-hydroxybenzamide] | – | – | 52.1 | 75.1 | 3910 |
| Cc1cn(Cc2ccc(C(=O)NO)cc2)c2c1C(=O)NCC2 [Compound 232, N-hydroxy-4-((3-methyl-4-oxo-4,5,6,7-tetrahydropyrrolo[3,2-c]pyridin-1-yl)methyl)benzamide] | – | – | 107.4 | 45 | 4840 |
| Cc1cn(Cc2ccc(C(=O)NO)cc2)c2c1C(=O)CC(C)(C)C2 [Compound 136, N-hydroxy-4-((3,6,6-trimethyl-4-oxo-4,5,6,7-tetrahydro-1H-indol-1-yl)methyl)benzamide] | – | – | 380.3 | 8.58 | 3260 |
| O=C(NO)c1ccc(Cn2c3c(c4ccccc42)C(=O)CCC3)cc1 [Compound 99, N-hydroxy-4-((4-oxo-1,2,3,4-tetrahydrocarbazol-9-yl)methyl)benzamide] | – | – | 163.9 | 16.4 | 2680 |
| O=C(NO)c1ccc(Cn2c3c(c4ccccc42)C(=O)NCC3)cc1 [Compound 228, N-hydroxy-4-((1-oxo-1,2,3,4-tetrahydropyrido[4,3-b]indol-5-yl)methyl)benzamide] | – | – | 208.3 | 16.9 | 3530 |
| Cc1nccn1CC1CCc2c(c3ccccc3n2CCCCCC(=O)NO)C1=O (centres unmarked) [Compound 194, N-hydroxy-6-(3-((2-methyl-1H-imidazol-1-yl)methyl)-4-oxo-1,2,3,4-tetrahydrocarbazol-9-yl)hexanamide] | – | – | 131.3 | 23.5 | 3080 |
| CC1(C)CC(=O)c2c(n(CCCCCC(=O)NO)c3ccc(Br)cc23)C1 [Compound 40, 6-(6-bromo-2,2-dimethyl-4-oxo-1,2,3,4-tetrahydrocarbazol-9-yl)-N-hydroxyhexanamide] | – | – | 75.5 | 117 | 8880 |
| CS(=O)(=O)N1CCN(CC2CCc3c(c4ccccc4n3Cc3ccc(C(=O)NO)cc3)C2=O)CC1 (centres unmarked) [Compound 130, N-hydroxy-4-((3-((4-(methylsulfonyl)piperazin-1-yl)methyl)-4-oxo-1,2,3,4-tetrahydrocarbazol-9-yl)methyl)benzamide] | – | – | 564.9 | 4.7 | 2640 |
